Patent publication US10829483B2, “Thiophene, manufacturing method thereof, and pharmaceutical application of same” (CSTONE PHARMACEUTICAL (SUZHOU) CO., LTD., priority 2016, dated 2020)

The compounds below were run against URAT-1 (uric acid transporter) (Homo sapiens (Human), UniProt Q96S37) (assay: Inhibition of 14C uric acid transport by HEK293 cell line stably transfected with the URAT-1 gene). Details: URAT-1 (HEK293) cells; 14C-labelled uric acid 50 um, 10 min at 37° C.; read-out: IC50 (inhibition against URAT-1).
Sequence of URAT-1 (uric acid transporter) (Q96S37 whole entry): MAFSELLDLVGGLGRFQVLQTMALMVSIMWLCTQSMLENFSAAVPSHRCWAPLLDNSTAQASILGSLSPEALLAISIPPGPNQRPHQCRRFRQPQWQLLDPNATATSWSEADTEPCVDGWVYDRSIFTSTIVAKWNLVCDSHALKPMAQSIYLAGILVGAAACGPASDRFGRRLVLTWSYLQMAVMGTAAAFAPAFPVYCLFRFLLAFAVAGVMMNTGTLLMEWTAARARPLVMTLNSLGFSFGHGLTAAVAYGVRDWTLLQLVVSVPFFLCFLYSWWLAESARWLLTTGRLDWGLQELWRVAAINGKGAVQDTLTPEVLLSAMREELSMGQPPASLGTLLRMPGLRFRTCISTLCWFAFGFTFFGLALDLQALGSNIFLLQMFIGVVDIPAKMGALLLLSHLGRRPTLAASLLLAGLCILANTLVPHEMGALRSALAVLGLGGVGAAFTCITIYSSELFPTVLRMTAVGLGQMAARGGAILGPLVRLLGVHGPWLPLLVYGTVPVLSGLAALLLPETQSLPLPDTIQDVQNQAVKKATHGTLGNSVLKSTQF
Assay type: cell-based
Procedure: Determination of the IC50 value of the inhibitory activity of the compound against uric acid reabsorption by the HEK293 cell line stably transfected with the URAT-1 (uric acid transporter) gene.
URAT-1 (HEK293) cell line: the HEK293 cell line stably transfected with the URAT-1 gene
cell culture medium: DMEM culture medium added 10% fetal bovine serum (FBS), 1% sodium pyruvate and […] G418.
Uric acid solution labeled by ^14C.
1) the supernatant of cell culture was aspirated, and cells was washed with 10 mL PBS.
2) preheated trypsin was added into the cell culture flask, and the cell culture flask was rotated to make trypsin covering onto the bottom of cell culture flask equably.
3) the cells were suspended with 10-15 mL of culture medium in each T150 flask, took 0.1 mL of cell suspension and diluted it with two volumes of trypan blue solution to count the cells.
4) cells were diluted to 2.5×10^5/mL with the culture medium, and the diluted cells were added into a rat tail collagen-coated 24-well plate (800 uL/well, 2×10^5 cells/well). The plate was incubated overnight at 37° C. in a 5% CO2 incubator.
1) cells were seeded into 24-well plate, and supernatant was discarded after 16-18 h. The cells were washed twice using 600 ul HBSS buffer.
2) HBSS buffer was removed and 180 ul of HBSS buffer was added into each well again.
1) compounds were dissolved into 100% DMSO, and diluted into 6 concentration points by 3-fold dilution, or into 2 concentration points by 10-fold dilution, and the highest starting concentration was 50 mM.
2) 5 ul DMSO solution in step 1) was transferred into 120 ul of HBSS buffer to make a 25-fold dilution.
3) 10 ul diluted solution in step 2) was added into 24-well plate, and the plate was incubated for 15 min at 37° C. in a 5% CO2 incubator. The final concentration of DMSO is 0.2%. The control well contained 0.2% DMSO without compound.
^14C-labelled uric acid was diluted and added into plate, and the final concentration is 50 um. The plate was incubated for 10 min at 37° C. in a 5% CO2 incubator. After supernatant was discarded, cells were washed with HBSS buffer twice. Cells was lysed with 0.1M NaOH. And then cell lysis solution was collected into liquid scintillation tube and added with liquid scintillation solution. The signal was read by liquid scintillation counter Tri-Carb. e) data analysis URAT-1 inhibition by the treatment of the compounds was analyzed by calculating the percentage of inhibition. Non-linear fitting analysis of percent inhibition (inh %) data using GraphPad Prism software to generate the IC50 value.
In the case of `Cc1cc(-n2c(Br)nnc2SC(C)C(=O)O)sc1-c1ccc(Cl)cc1` (stereo not drawn) [WX086], the IC50 is reported as 2 to 20 µM.
In the case of `C[C@H](Sc1nnc(Br)n1-c1sc(C2CC2)c2c1CCCC2)C(=O)O` [WX032], the IC50 is reported as < 2 µM.
In the case of `Cn1cc(-c2sc(-n3cnnc3SCC(=O)O)c3c2CCC3)cn1` [WX056], the IC50 is reported as > 20 µM.
In the case of `CC(C)(Sc1nnc(Br)n1-c1sc(-c2ccc(C(F)(F)F)cc2)c2c1CCCC2)C(=O)O` [WX010], the IC50 is reported as 2 to 20 µM.
With `O=C(O)CSc1nnc(Br)n1-c1sc(-c2cc(F)cc(F)c2)c2c1CCCC2` [WX009] the IC50 was < 2 µM.
`O=C(O)CSc1nnc(Br)n1-c1sc(-c2ccc(F)cc2)c2c1CCC2` [WX038] was tested, and the IC50 was > 20 µM.
`O=C(O)CSc1nnc(Br)n1-c1sc(-c2ccccc2)c2c1CCCC2` [WX003] was tested, and the IC50 was 2 to 20 µM.
Work on `COc1ccc(-c2sc(-n3c(Br)nnc3SC(C)(C)C(=O)O)cc2Cl)cc1` [WX071] yielded an IC50 of 2 to 20 µM.
In the case of `CCOC(=O)CSc1nncn1-c1cc(Br)c(C2CC2)s1` [WX072], the IC50 is reported as > 20 µM.
Work on `CN(C)c1ccc(-c2sc(-n3cnnc3SCC(=O)O)c3c2CCC3)cc1Br` [WX057] yielded an IC50 of 2 to 20 µM.
In the case of `CCC(Sc1nnc(Br)n1-c1cc(C)c(C2CC2)s1)C(=O)O` (stereo not drawn) [WX091], the IC50 is reported as < 2 µM.
For `CC(C)(Sc1nnc(Br)n1-c1sc(C2CC2)c2c1CCC2)C(=O)O` [WX062], the IC50 was < 2 µM.
`Cc1ccc(-c2sc(-n3cnnc3SCC(=O)O)c3c2CCC3)cc1` [WX050] was tested, and the IC50 was > 20 µM.
`CC(C)(Sc1nnc(Br)n1-c1sc(-c2ccncn2)c2c1CCCC2)C(=O)O` [WX025] was tested, and the IC50 was > 20 µM.
For `CC(Sc1nnc(Br)n1-c1sc(C2CC2)c2c1CCCC2)C(=O)O` (stereo not drawn) [WX026], the IC50 was < 2 µM.
In the case of `Cc1cc(-n2c(Br)nnc2SC(C)C(=O)O)sc1C1CC1` (stereo not drawn) [WX094], the IC50 is reported as < 2 µM.
In the case of `O=C(O)CSc1nncn1-c1sc(-c2cccc(F)c2)c2c1CCCC2` [WX020], the IC50 is reported as > 20 µM.
With `COc1ccc(-c2sc(-n3c(Br)nnc3SCC(=O)O)c3c2CCC3)cc1` [WX043] the IC50 was > 20 µM.
`CC(C)c1nnc(SCC(=O)O)n1-c1sc(C2CC2)c2c1CCC2` [WX101] was tested, and the IC50 was > 20 µM.
For `COC(=O)CSc1nncn1-c1cc(Br)c(-c2ccccc2)s1` [WX073], the IC50 was > 20 µM.
With `Cc1ccc(-c2sc(-n3c(Br)nnc3SCC(=O)O)c3c2CCC3)cc1` [WX042] the IC50 was > 20 µM.
With `O=C(O)CSc1nncn1-c1sc(-c2ccc(Cl)c(Cl)c2)c2c1CCC2` [WX055] the IC50 was > 20 µM.
`O=C(O)C1(Sc2nnc(Br)n2-c2cc(Cl)c(C3CC3)s2)CCCC1` [WX069] was tested, and the IC50 was < 2 µM.
In the case of `O=C(O)C1(Sc2nnc(Br)n2-c2sc(C3CC3)c3c2CCC3)CCC1` [WX059], the IC50 is reported as < 2 µM.
`O=C(O)CSc1nnc(Br)n1-c1sc(C2CC2)c2c1CCC2` [WX058] was tested, and the IC50 was > 20 µM.
With `CCOC(=O)C(C)(C)Sc1nnc(Br)n1-c1sc(C(=O)Nc2ccc(F)c(F)c2)c2c1CCCC2` [WX100] the IC50 was > 20 µM.
`CC(Sc1nnc(Br)n1-c1sc(-c2ccc(Cl)c(Cl)c2)c2c1CCCC2)C(=O)O` (stereo not drawn) [WX018] was tested, and the IC50 was 2 to 20 µM.
Compound `O=C(O)CSc1nnc(Br)n1-c1sc(-c2ccc(F)cc2)c2c1CCCC2` [WX006] has an IC50 of 2 to 20 µM.
With `CC(Sc1nnc(Br)n1-c1cc(Cl)c(C2CC2)s1)C(=O)O` (stereo not drawn) [WX070] the IC50 was 2 to 20 µM.
With `COc1ccc(-c2sc(-n3c(Br)nnc3SC(C)C(=O)O)c3c2CCCC3)cc1Br` (stereo not drawn) [WX012] the IC50 was < 2 µM.
`CC1(C)Cc2c(C3CC3)sc(-n3c(Br)nnc3SC(C)(C)C(=O)O)c2C1` [WX065] was tested, and the IC50 was < 2 µM.
Work on `Cc1cc(-n2c(Br)nnc2SC(C)C(=O)O)sc1-c1ccccc1` (stereo not drawn) [WX080] yielded an IC50 of 2 to 20 µM.
`CC(C)(Sc1nnc(Br)n1-c1sc(-c2ccccc2)c2c1CCCC2)C(=O)O` [WX005] was tested, and the IC50 was < 2 µM.
`COc1ccc(-c2sc(-n3cnnc3SCC(=O)O)cc2C)cc1` [WX096] was tested, and the IC50 was > 20 µM.
`O=C(O)CSc1nnc(Br)n1-c1sc(-c2ccccc2)c2c1CCC2` [WX037] was tested, and the IC50 was > 20 µM.
For `O=C(O)CSc1nnc(Br)n1-c1sc(-c2cccc(Cl)c2)c2c1CCC2` [WX045], the IC50 was > 20 µM.
In the case of `CC(Sc1nnc(Br)n1-c1sc(-c2ccc(S(C)(=O)=O)cc2)c2c1CCCC2)C(=O)O` (stereo not drawn) [WX015], the IC50 is reported as > 20 µM.
`O=C(O)CSc1nncn1-c1sc(C2CC2)c2c1CCCC2` [WX002] was tested, and the IC50 was > 20 µM.
In the case of `O=C(O)CSc1nnc(Br)n1-c1sc(-c2ccc(Cl)cc2)c2c1CCC2` [WX040], the IC50 is reported as > 20 µM.
With `CC(C)(Sc1nnc(Br)n1-c1sc(-c2ccc(Cl)c(Cl)c2)c2c1CCCC2)C(=O)O` [WX011] the IC50 was < 2 µM.
In the case of `CNc1c(Br)cc(-c2sc(-n3cnnc3SC(C)(C)C(=O)O)c3c2CCCC3)cc1Br` [WX024], the IC50 is reported as 2 to 20 µM.
`O=C(O)CSc1nnc(Br)n1-c1sc(-c2cccc(F)c2)c2c1CCCC2` [WX007] showed an IC50 of 2 to 20 µM.
`CC1(C)CCc2c(C3CC3)sc(-n3c(Br)nnc3SC(C)(C)C(=O)O)c2C1` [WX034] was tested, and the IC50 was < 2 µM.
`Cc1cc(-n2c(Br)nnc2SC(C)(C)C(=O)O)sc1C1CC1` [WX089] gave an IC50 of 2 to 20 µM.
For `O=C(O)C1(Sc2nnc(Br)n2-c2cc(Cl)c(C3CC3)s2)CCC1` [WX068], the IC50 was 2 to 20 µM.
`Cc1cc(-n2c(Br)nnc2SC(C)C(=O)O)sc1-c1cccc(F)c1` (stereo not drawn) [WX087] gave an IC50 of 2 to 20 µM.
`CC(C)(C)c1ccc(-c2sc(-n3cnnc3SCC(=O)O)c3c2CCC3)cc1` [WX048] was tested, and the IC50 was > 20 µM.
For `O=C(O)C1(Sc2nnc(Br)n2-c2sc(C3CC3)c3c2CCCC3)CCCC1` [WX030], the IC50 was < 2 µM.
With `O=C(O)CSc1nnc(Br)n1-c1sc(-c2ccc(C(F)(F)F)cc2)c2c1CCC2` [WX044] the IC50 was > 20 µM.
Work on `CC(Sc1nnc(Br)n1-c1sc(-c2ccccc2)c2c1CCCC2)C(=O)O` (stereo not drawn) [WX004] yielded an IC50 of 2 to 20 µM.
`O=C(O)CSc1nncn1-c1sc(-c2cc(F)cc(F)c2)c2c1CCCC2` [WX022] was tested, and the IC50 was > 20 µM.
`CC(C)(Sc1nnc(Br)n1-c1sc(C2CC2)c2c1CCCC2)C(=O)O` [WX027] was tested, and the IC50 was < 2 µM.
`COC(=O)C(C)(C)Sc1nncn1-c1cc(Br)c(-c2ccccc2)s1` [WX077] was tested, and the IC50 was > 20 µM.
`CCOC(=O)C(C)(C)Sc1nncn1-c1sc(C(=O)NC(O)CCBr)c2c1CCCC2` (stereo not drawn) [WX103] gave an IC50 of 2 to 20 µM.
In the case of `COc1ccc(-c2sc(-n3cnnc3SCC(=O)O)c3c2CCC3)cc1` [WX049], the IC50 is reported as > 20 µM.
`COc1ccc(-c2sc(-n3c(Br)nnc3SC(C)C(=O)O)c3c2CCCC3)cc1` (stereo not drawn) [WX016] gave an IC50 of 2 to 20 µM.
With `Cc1cc(-n2cnnc2SCC(=O)O)sc1-c1ccc(C(F)(F)F)cc1` [WX097] the IC50 was > 20 µM.
With `Cc1cc(-n2cnnc2SCC(=O)O)sc1-c1ccc(C(C)(C)C)cc1` [WX098] the IC50 was > 20 µM.
With `Cn1cc(-c2sc(-n3c(Br)nnc3SCC(=O)O)c3c2CCC3)cn1` [WX047] the IC50 was > 20 µM.
For `Cc1cc(-n2c(Br)nnc2SCC(=O)O)sc1C1CC1` [WX078], the IC50 was > 20 µM.
With `O=C(O)C1(Sc2nnc(Br)n2-c2sc(C3CC3)c3c2CCCC3)CCC1` [WX029] the IC50 was < 2 µM.
Compound `CC(C)(Sc1nnc(Br)n1-c1sc(C2CC2)c2c1CCC2)C(=O)NO` [WX102] has an IC50 of 2 to 20 µM.
For `O=C(O)CSc1nncn1-c1sc(-c2ccc(C(F)(F)F)cc2)c2c1CCC2` [WX051], the IC50 was > 20 µM.
In the case of `O=C(O)CSc1nnc(Br)n1-c1sc(-c2ccc(Cl)c(Cl)c2)c2c1CCC2` [WX041], the IC50 is reported as > 20 µM.
`Cc1cc(-n2c(Br)nnc2SCC(=O)O)sc1-c1ccc(C(F)(F)F)cc1` [WX084] was tested, and the IC50 was > 20 µM.
For `O=C(O)CSc1nncn1-c1sc(-c2cccc(Cl)c2)c2c1CCC2` [WX052], the IC50 was > 20 µM.
`O=C(O)CSc1nnc(Br)n1-c1sc(-c2ccc(F)c(F)c2)c2c1CCCC2` [WX008] gave an IC50 of 2 to 20 µM.
`CC1(C)Cc2c(C3CC3)sc(-n3c(Br)nnc3SC3(C(=O)O)CCC3)c2C1` [WX066] was tested, and the IC50 was < 2 µM.
Work on `Cc1cc(-n2c(Br)nnc2SC(C(=O)O)c2ccccc2)sc1C1CC1` (stereo not drawn) [WX090] yielded an IC50 of 2 to 20 µM.
